Assay results taken from patent US4206226A (priority 1978, dated 1980).
Where “and” joins values, the source holds several entries; their conditions need not be identical. Equal entries are not always repeated.

Legend:
[1] = tested on: adenocarcinoma of the stomach, pancreas, and large bowel; conditions: combined FU and radiation vs radiation therapy alone, patients; cited from earlier work
[2] = tested on: L1210 leukemia; assay: Combination chemotherapy of advanced L1210 leukemia, cure rate (greater than 60-day survival); assay type: in vivo, mice; conditions: at least 1000 mg/kg
Procedure: Compound Pt-307 was administered usually in a dosage regimen of 5-60 mg/kg of body weight. This was given as a single dose or on Days 1, 5, and 9 in the standard National Institutes of Health 10-day testing.
CY was utilized at an optimum 50 mg/kg of body weight (range 25-75 mg/kg ) preferably given at Day 3 in the 10-day testing. 5-FU was utilized at 75 mg/kg of body weight (range 50-100 mg/kg) at Day 3. HU was used in a high dosage of at least 1000 mg/kg of body weight (range 1000-1500 mg/kg). The 5-FU and the HU were utilized as ternary compositions only with cyclophosphamide and the platinum compound.
Hydroxyurea is utilized in combination therapy at a high dosage of at least 1000 mg/kg of body weight (range 1000-1500 mg/kg).

[3] = tested on: Colon #38; assay: Panel of mouse tumors: Colon #38, tumor weight inhibition assay; assay type: in vivo; conditions: sc tumor, D2,9 ip
Procedure: (§1) **Tumor weight inhibition assay.
(§2) Data are expressed as a percentage of the survival time in days or the
(§3) tumor weights in mg of the treated mice divided by the corresponding
(§4) values for the control mice. All testing was performed using both platinu
(§5) compounds in the same experiment. The criteria for activity are as
(§6) follows: confirmed activity (activity from two separate laboratories) of
(§7) % T/C of 150 or more for survival systems and 10% or less for tumor weigh
(§8) inhibition assays. Lower levels of activity such as a % T/C of 125 for
(§9) survival systems and 42% for tumor weight inhibition assays are considere
(§10) statistically significant.

[4] = tested on: L1210/DDP (NSC119875) resistant cells; assay: In vitro growth inhibition of L1210/DDP (NSC119875 resistant) cells; assay type: cell-based, murine; conditions: growth inhibition by 50 percent
Source text: (§11) The ID50 refers to the concentration of test compound required to
(§12) inhibit the growth of either the L1210 or L1210/DDP (NSC119875) resistant

[5] = tested on: P388/DDP leukemia; assay: In vivo activity against P388/DDP leukemia with acquired resistance to NSC-119875; design: species or system murine; conditions: for % ILS, P388/DDP / Survival (Days), P388/DDP: Days 1,5,9,13, NSC-119875 6.7 mg/kg, NSC-271674 20.0 mg/kg; for Survival (Days), P388/DDP: control 11.0 days
Source text: P388/DDP refers to a tumor line with acquired resistance to NSC119875.
(§13) Data are expressed as survival in days and as a percentage increase in […]

[6] = tested on: L1210 cells; assay: In vitro growth inhibition of L1210 cells; assay type: cell-based, murine; conditions: growth inhibition by 50 percent
Source text: as §11, §12

[7] = tested on: L1210; assay: Panel of mouse tumors: L1210, survival time assay; assay type: in vivo; conditions: ip tumor, D1-9 ip
Procedure: (§14) *Survival time (mean or median) assay
as §2, §3, §4, §5, §6, §7, §8, §9, §10

[8] = tested on: B16 melanoma; assay: Panel of mouse tumors: B16 melanoma, survival time assay; assay type: in vivo; conditions: ip tumor, D1-9 ip
Procedure: as §14, §1, §2, §3, §4, §5, §6, §7, §8, §9, §10

[9] = tested on: Lewis lung; assay: Panel of mouse tumors: Lewis lung, survival time assay; assay type: in vivo; conditions: iv tumor, D1-9 ip
Procedure: as §14, §2, §3, §4, §5, §6, §7, §8, §9, §10

[10] = tested on: P388 leukemia; assay: In vivo activity against P388 leukemia; design: species or system murine; conditions: Days 1,5,9,13, NSC-119875 6.7 mg/kg, NSC-271674 20.0 mg/kg; for Survival (Days), P388: control 13.3 days
Source text: as §13

[11] = tested on: CD8Fl mammary; assay: Panel of mouse tumors: CD8Fl mammary, tumor weight inhibition assay; assay type: in vivo; conditions: sc tumor, Q7DX5 ip
Procedure: as §1, §2, §3, §4, §5, §6, §7, §8, §9, §10

[12] = Renal Toxicity Screening Protocol, toxicity compared to NSC-119875; assay type: in vivo; conditions: for Body Weight Loss / Clinical Chemistry - Blood Urea Nitrogen / Clinical Chemistry - Creatinine / Clinical Chemistry - Serum Glutamic Pyruvic Transaminase / Hematology - Hematocrit / Hematology - White Blood Cell / Histopathology - Gastrointestinal / Histopathology - Hematopoietic / Histopathology - Lymphatic / Histopathology - Renal: score relative to NSC119875; for TOTAL SCORE: sum of ten parameter scores
[13] = Approximate LD50; assay type: in vivo; conditions: mice
[14] = tested on: L1210 leukemia; assay: Second screener, L1210 leukemia, day 1, 5, 9 schedule; assay type: in vivo, mice; conditions: 6.25 mg/kg
Source text: The compound was submitted to the Drug Development Branch of the National Cancer Institute and assigned NSC Number 271674. It was screened against the L1210 leukemia on a day 1, 5, 9 schedule and the following results were obtained:

[15] = tested on: L1210 leukemia; assay: Delayed (Day 3) treatment of L1210 leukemia, compound singly and in combination regimen; assay type: in vivo, BDF1 mice; conditions: for >60 day survivors: Day 3
Procedure: The compound in 1% NaHCO3 solution was tested against the L1210 leukemia in BDF1 mice [10^6 cells given to mice on Day 0, treatment (ip) on Day 1 only] in laboratory and the following % increases in life span (%ILS) were noted:
The compound singly and in combination regimen
When treatment was delayed until Day 3, 5 mg/kg gave 51% ILS, 42% ILS and 39% ILS in three experiments.

[16] = tested on: L1210 leukemia; assay: L1210 leukemia in BDF1 mice, treatment (ip) on Day 1 only, % increase in life span; assay type: in vivo
Procedure: The compound in 1% NaHCO3 solution was tested against the L1210 leukemia in BDF1 mice [10^6 cells given to mice on Day 0, treatment (ip) on Day 1 only] in laboratory and the following % increases in life span (%ILS) were noted: […]

[17] = tested on: murine leukemia L1210; assay: Antileukemic activity in mice against murine leukemia L1210 (general statement); assay type: in vivo
Source text: Some previous platinum chelate compounds show dosage limitation due to renal impairment but the free carboxyl of the present composition offers a possible route of oral […] and absorption by the stomach.

[18] = first line, optimal dose (mg/kg/inj): NSC-119875 8, NSC-271674 12.5
[19] = second line, optimal dose (mg/kg/inj): NSC-119875 16, NSC-271674 50
[20] = first line, optimal dose (mg/kg/inj): NSC-119875 2, NSC-271674 0.78
[21] = second line, optimal dose (mg/kg/inj): NSC-119875 2, NSC-271674 1.56
[22] = first line, optimal dose (mg/kg/inj): NSC-119875 2, NSC-271674 6.25
[23] = second line, optimal dose (mg/kg/inj): NSC-119875 1, NSC-271674 1.56
[24] = first line, optimal dose (mg/kg/inj): NSC-119875 2, NSC-271674 3.12
[25] = second line, optimal dose (mg/kg/inj): NSC-119875 2, NSC-271674 6.25
[26] = first line, optimal dose (mg/kg/inj): NSC-119875 8, NSC-271674 6.25
[27] = second line, optimal dose (mg/kg/inj): NSC-119875 8, NSC-271674 25

## O=c1[nH]cc(F)c(=O)[nH]1 [5-fluorouracil]
[1]
  mean survival times: significantly increased

## NC(=O)NO [Hydroxyurea, hydroxyurea]
[2]
  effectiveness when used alone: only minimally effective

## N.N.[Cl][Pt][Cl] [NSC-119875, Cis-dichlorodiamino platinum II]
[3]; [18]
  % T/C (tumor weight): 42%
[3]; [19]
  % T/C (tumor weight): 11%
[4]
  ID50 L1210/DDP: 2.50 µg/mL
[5]
  % ILS, P388/DDP: 41%
  Survival (Days), P388/DDP: 15.5 days
[6]
  ID50 L1210: 0.05 µg/mL
[7]; [20]
  % T/C (survival time): 151%
[7]; [21]
  % T/C (survival time): 182%
[8]; [22]
  % T/C (survival time): 193%
[8]; [23]
  % T/C (survival time): 166%
[9]; [24]
  % T/C (survival time): 135%
[9]; [25]
  % T/C (survival time): 177%
[10]
  % ILS, P388: 145%
  Survival (Days), P388: 32.6 days
[11]; [26]
  % T/C (tumor weight): 0%
[11]; [27]
  % T/C (tumor weight): 0%

## N.N.O=C([O-])C1(C(=O)[O-])CCC1.[Pt+2] [NSC-241240, diamine[1,1cyclobutanedicarboxylato (2)-0,0']platinum]
[12]
  Body Weight Loss: 1
  Clinical Chemistry - Blood Urea Nitrogen: 1
  Clinical Chemistry - Creatinine: 1
  Clinical Chemistry - Serum Glutamic Pyruvic Transaminase: 3
  Hematology - Hematocrit: 4
  Hematology - White Blood Cell: 3
  Histopathology - Gastrointestinal: 1
  Histopathology - Hematopoietic: 5
  Histopathology - Lymphatic: 1
  Histopathology - Renal: 1
  TOTAL SCORE: 21

## NC1CCCCC1N.O=S(=O)([O-])[O-].[Pt+2] (centres unmarked) [NSC-250427, sulfato(1,2diaminocyclohexane)platinum (II)]
[12]
  Body Weight Loss: 2
  Clinical Chemistry - Blood Urea Nitrogen: 1
  Clinical Chemistry - Creatinine: 1
  Clinical Chemistry - Serum Glutamic Pyruvic Transaminase: 5
  Hematology - Hematocrit: 3
  Hematology - White Blood Cell: 3
  Histopathology - Gastrointestinal: 1
  Histopathology - Hematopoietic: 4
  Histopathology - Lymphatic: 2
  Histopathology - Renal: 2
  TOTAL SCORE: 24

## CC(C)N.CC(C)N.[Cl-].[Cl-].[OH-].[OH-].[Pt] [NSC-256927, bisisopropylamine-cis-dichloro-trans-dihydroxy platinum (IV)]
[12]
  Body Weight Loss: 2
  Clinical Chemistry - Blood Urea Nitrogen: 1
  Clinical Chemistry - Creatinine: 1
  Clinical Chemistry - Serum Glutamic Pyruvic Transaminase: 3
  Hematology - Hematocrit: 4
  Hematology - White Blood Cell: 3
  Histopathology - Gastrointestinal: 1
  Histopathology - Hematopoietic: 4
  Histopathology - Lymphatic: 4
  Histopathology - Renal: 2
  TOTAL SCORE: 25

## N[C@@H]1CCCC[C@H]1N.O=C([O-])c1ccc(C(=O)[O-])c(C(=O)[O-])c1.[H+].[Pt+2] [NSC-271674, 4-Carboxyphthalato(1,2-diaminocyclohexane)platinum(II)]
[13]
  approximate LD50: ~75 mg/kg
[3]; [18]
  % T/C (tumor weight): 50%
[3]; [19]
  % T/C (tumor weight): 33%
[14]
  questionably toxic deaths: 2
[4]
  ID50 L1210/DDP: 0.23 µg/mL
[5]
  % ILS, P388/DDP: 201%
  Survival (Days), P388/DDP: 33.3 days
[5]; murine leukemia strains
  activity against strains of murine leukemia wherein NSC 119875 has exhausted its activity: appears to be active
[6]
  ID50 L1210: 0.30 µg/mL
[7]; [20]
  % T/C (survival time): 174%
[7]; [21]
  % T/C (survival time): 325%
[15]; 5 mg/kg alone, Day 3 treatment, three experiments
  % ILS: 51% and 42% and 39%
[15]; 5 mg/kg with cyclophosphamide (50 mg/kg) and 5-fluorouracil (75 mg/kg)
  >60 day survivors: 8 of 10
[15]; 5 mg/kg with cyclophosphamide (50 mg/kg), two experiments
  >60 day survivors: 3 of 10 and no >60 day survivors
[16]; 5 mg/kg ip
  % increases in life span (% ILS): 70%
[16]; 10 mg/kg ip
  % increases in life span (% ILS): 118%
[16]; 20 mg/kg ip
  % increases in life span (% ILS): 119%
[16]; 25 mg/kg ip
  % increases in life span (% ILS): 139%
[16]; 40 mg/kg ip
  % increases in life span (% ILS): 232%
[16]; 50 mg/kg ip
  % increases in life span (% ILS): 288%
[16]; 60 mg/kg ip
  % increases in life span (% ILS): 174%
[12]; against NSC 119875
  testing for renal toxicity: superior results
[12]
  Body Weight Loss: 3
  Clinical Chemistry - Blood Urea Nitrogen: 1
  Clinical Chemistry - Creatinine: 1
  Clinical Chemistry - Serum Glutamic Pyruvic Transaminase: 3
  Hematology - Hematocrit: 3
  Hematology - White Blood Cell: 3
  Histopathology - Gastrointestinal: 1
  Histopathology - Hematopoietic: 5
  Histopathology - Lymphatic: 1
  Histopathology - Renal: 2
  TOTAL SCORE: 23
[8]; [22]
  % T/C (survival time): 171%
[8]; [23]
  % T/C (survival time): 159%
[9]; [24]
  % T/C (survival time): 122%
[9]; [25]
  % T/C (survival time): 127%
[10]
  % ILS, P388: 56%
  Survival (Days), P388: 20.7 days
[17]; CY 50 mg/kg
  potentiation in a treatment with cyclophosphamide: is potentiated
[17]; mice, L1210
  antileukemic activity: has shown antileukemic activity
  effective dosages: 5-60 mg/kg of body weight
[11]; [26]
  % T/C (tumor weight): 11%
[11]; [27]
  % T/C (tumor weight): 25%
